Results: patent US7056713B1, “Urate oxidase” (Duke University, priority 1998, dated 2006)
Each block holds one compound with its values, some of them ahead of it.

Key:
[1] = test system: recombinant pig-baboon chimeric uricase (PBC uricase; aa 1–225 of porcine uricase (SEQ ID NO:7) and aa 226–304 of baboon uricase (SEQ ID NO:6)), unmodified …; assay: KM of unmodified recombinant PBC uricase (studies not shown); format: biochemical, pig-baboon chimera
Description: (§1) In this PEGylation reaction all of the uricase subunits were modified (FIG. 1, lane 7). In studies not shown, the PEGylated enzyme had similar kinetic properties to unmodified PBC uricase (KM 10–20 μM). […] The PEGylated enzyme could also be lyophilized and then reconstituted in PBS, pH 7.2, with minimal loss of activity. In other experiments, we compared the activities of this preparation of PEG-PBC uricase with the A. flavus uricase clinical preparation. […] However, in PBS, pH 7.2, the PEG-PBC and unmodified fungal enzymes differed in uricase activity by <2 fold.

[2] = test system: PEGylated recombinant pig-baboon chimeric uricase (PEG-PBC uricase; PBC uricase SEQ ID NO:2); assay: KM of PEGylated recombinant PBC uricase (studies not shown); format: biochemical, pig-baboon chimera; conditions: similar kinetic properties to unmodified
Description: 100 mg of concentrated Sepahacryl S-200 PBC uricase (5 mg/ml, 2.9 μmol enzyme; 84.1 μmol lysine) in 0.1 M Na2CO3, pH 10.2 was allowed to react with a 2-fold excess (mol of PEG:mol uricase lysines) of an activated form of PEG at 4° for 60 min. The PEGylated uricase was freed from any unreacted or hydrolyzed PEG by tangential flow diafiltration. In this step the reaction was diluted 1:10 in 0.1 M Na2CO3, pH 10.2 and diafiltered vs. 3.5 vol 0.1 M Na2CO3, pH 10.2, then vs. 3.5 vol 0.05 M sodium phosphate, 0.15 M NaCl, pH 7.2. The filter-sterilized enzyme was stable at 4° for at least one month.
In this PEGylation reaction all of the uricase subunits were modified (FIG. 1, lane 7). In studies not shown, the PEGylated enzyme had similar kinetic properties to unmodified PBC uricase (KM 10–20 μM). Importantly, the modified enzyme was much more soluble than the unmodified enzyme at physiologic pH (>5 mg/ml in PBS vs. <1 mg/ml). The PEGylated enzyme could also be lyophilized and then reconstituted in PBS, pH 7.2, with minimal loss of activity. In other experiments, we compared the activities of this preparation of PEG-PBC uricase with the A. flavus uricase clinical preparation. […] However, in PBS, pH 7.2, the PEG-PBC and unmodified fungal enzymes differed in uricase activity by <2 fold.

[3] = biological target: T1, Aspergillus flavus uricase, clinical preparation (unmodified fungal enzyme) (Aspergillus flavus, UniProt Q00511); assay: Kinetic comparison of A. flavus uricase clinical preparation with PEG-PBC uricase; format: biochemical; conditions: pH 8.6 in borate buffer; versus PEG-PBC uricase
T1 sequence (Q00511 2-302 limits assumed): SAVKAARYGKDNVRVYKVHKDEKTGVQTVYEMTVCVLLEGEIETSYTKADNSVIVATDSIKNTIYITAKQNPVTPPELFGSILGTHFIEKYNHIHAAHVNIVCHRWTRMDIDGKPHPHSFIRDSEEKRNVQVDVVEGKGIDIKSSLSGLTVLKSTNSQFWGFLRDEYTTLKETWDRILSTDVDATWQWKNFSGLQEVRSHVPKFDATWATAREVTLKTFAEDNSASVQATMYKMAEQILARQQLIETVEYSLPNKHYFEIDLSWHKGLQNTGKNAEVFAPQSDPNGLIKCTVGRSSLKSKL
Description: as §1

[4] = human, in vivo; cited from earlier work
[5] = compared with uric acid; background statement; cited from earlier work

Km [1]: 10 to 20 µM | Km [2]: 10 to 20 µM | KM, fold higher than PEG-PBC uricase [3]: 2 fold | Vmax, fold higher than PEG-PBC uricase [3]: 10–14 fold
Compound: O=c1[nH]c(=O)c2[nH]c(=O)[nH]c2[nH]1 [uric acid]

Compound: Oc1ncnc2[nH]ncc12 [allopurinol]
patients who develop allergic reactions [4]: ~2% | severe hypersensitivity syndrome [4]: ~0.4%

Compound: NC(=O)NC1NC(=O)NC1=O (stereo not shown) [allantoin]
solubility relative to uric acid (times more soluble) [5]: 80–100 times
